Measured values: patent US8404677B2, “Kinase inhibitors” (Genosco, priority 2009, dated 2013)
pIC50: −log10 of the molar value.

Columns and labels:
HS 578T = assay: cells; assay type: cell-based; details: HS 578T (Breast Cancer)
MCF7 = assay: cells; assay type: cell-based; details: MCF7 (Breast Cancer)
SK-OV-3 = assay: cells; assay type: cell-based; details: SK-OV-3 (Ovarian Cancer)
[1] = system: TNF-α release in THP-1 cells, IgG stimulation; assay: SYK dependent TNF-α release assay (IgG stimulation); assay type: cell-based, human
Description: Compounds of the invention were tested for their TNF-α release effect on THP-1 cells. For SYK dependent TNF-α release assay (i.e., via IgG stimulation), THP-1 cells derived from human monocytic cells were obtained from the American Type Culture Collection (ATCC, Manassas, Va.). This cell line was maintained with an Roswell Park Memorial Institute (RPMI) medium (GIBCO™) containing 10 fetal bovine serum (FBS; GIBCO™) and 0.05 mM 2-mercaptoethanol. The THP-1 cells were seeded at 1×10^5 cells/100 μL/well into human IgG ([…], INVITROGEN™)-coated 96 well culture plate, and serially diluted compound was then added. After an 18-hour incubation period at 37° C., supernatants were collected for the determination of the TNF-α level by enzyme-linked immunosorbent assay (ELISA), and the remaining cells were subjected to an MTT (yellow tetrazolium salt) assay to determine the cytotoxic effects of compound.

UO-31 = assay: cells; assay type: cell-based; details: UO-31 (Renal Cancer)
CAKI-1 = assay: cells; assay type: cell-based; details: CAKI-1 (Renal Cancer)
LOX IMVI = assay: cells; assay type: cell-based; details: LOX IMVI (Melanoma)
[2] = system: TNF-α release in THP-1 cells, LPS stimulation; assay: SYK independent TNF-α release assay (LPS stimulation); assay type: cell-based, human
Description: For SYK independent TNF-α release assay (i.e., via lipopolysaccharide (LPS)-stimulation), THP-1 cells derived from human monocytic cells were obtained from the American Type Culture Collection (ATCC, Manassas, Va.). This cell line was maintained with an RPMI medium (GIBCO™) containing 10 fetal bovine serum (FBS, GIBCO™) and 0.05 mM 2-mercaptoethanol. The THP-1 cells were seeded at 1×10^5 cells/100 μL/well into 96-well culture plates, and treated with lipopolysaccharide (1 μg/ml), and serially diluted compound was then added. After an 18-hour incubation period at 37° C., supernatants were collected for the determination of the TNF-α level by ELISA, and the remaining cells were subjected to an MTT assay to determine the cytotoxic effects of compound.

A549/ATCC = assay: cells; assay type: cell-based; details: A549/ATCC (NSCLC)
OVCAR-4 = assay: cells; assay type: cell-based; details: OVCAR-4 (Ovarian Cancer)
SYK = SYK (Homo sapiens, UniProt P43405); assay: Inhibition of enzymatic kinase activity (LANCE Ulight); assay type: biochemical; design: Purified full-length human SYK, ZAP70, PIM1, PYK2; purchased Carna Biosciences; details: at 1 μM concentration; read-out: SYK percentage inhibition
Description: (§1) Inhibition of Enzymatic SYK, ZAP70, PYK2, FAK, PIM1, RET, FLT3, JAK2 and LRRK2 Kinase Activity
(§2) Compounds of the invention were initially diluted to 10 mM in 100% DMSO (CALBIOCHEM™) for storage and made into kinase buffer solution to create a compound concentration ranging from 1 uM and 10 uM. Serial dilutions of compounds of the invention were dispensed into a 96-well plate (GREINER BIOSCIENCES™) at 6 μL each. Purified full-length human SYK, ZAP70, PIM1, PYK2 and truncated human FAK, RET, FLT3, JAK2, and LRRK2 (CARNA BIOSCIENCES™) were diluted in kinase buffer and added to the compound solutions and pre-incubated for 30 minutes at room temperature (1 hour for PYK2). […] The reaction mixture was incubated for 1 hour (2 hours for PYK2). Following the incubation, the stop solution made with EDTA, water, and Lance detection buffer ([…]™) was added (12 μL each) to stop phosphorylation.

PYK2 = PYK2 (Homo sapiens, UniProt Q14289); assay: as above; assay type: biochemical; design: Purified full-length human SYK, ZAP70, PIM1, PYK2; purchased Carna Biosciences; details: at 1 μM concentration; read-out: PYK2 percentage inhibition
Chain of PYK2 (Q14289 whole entry): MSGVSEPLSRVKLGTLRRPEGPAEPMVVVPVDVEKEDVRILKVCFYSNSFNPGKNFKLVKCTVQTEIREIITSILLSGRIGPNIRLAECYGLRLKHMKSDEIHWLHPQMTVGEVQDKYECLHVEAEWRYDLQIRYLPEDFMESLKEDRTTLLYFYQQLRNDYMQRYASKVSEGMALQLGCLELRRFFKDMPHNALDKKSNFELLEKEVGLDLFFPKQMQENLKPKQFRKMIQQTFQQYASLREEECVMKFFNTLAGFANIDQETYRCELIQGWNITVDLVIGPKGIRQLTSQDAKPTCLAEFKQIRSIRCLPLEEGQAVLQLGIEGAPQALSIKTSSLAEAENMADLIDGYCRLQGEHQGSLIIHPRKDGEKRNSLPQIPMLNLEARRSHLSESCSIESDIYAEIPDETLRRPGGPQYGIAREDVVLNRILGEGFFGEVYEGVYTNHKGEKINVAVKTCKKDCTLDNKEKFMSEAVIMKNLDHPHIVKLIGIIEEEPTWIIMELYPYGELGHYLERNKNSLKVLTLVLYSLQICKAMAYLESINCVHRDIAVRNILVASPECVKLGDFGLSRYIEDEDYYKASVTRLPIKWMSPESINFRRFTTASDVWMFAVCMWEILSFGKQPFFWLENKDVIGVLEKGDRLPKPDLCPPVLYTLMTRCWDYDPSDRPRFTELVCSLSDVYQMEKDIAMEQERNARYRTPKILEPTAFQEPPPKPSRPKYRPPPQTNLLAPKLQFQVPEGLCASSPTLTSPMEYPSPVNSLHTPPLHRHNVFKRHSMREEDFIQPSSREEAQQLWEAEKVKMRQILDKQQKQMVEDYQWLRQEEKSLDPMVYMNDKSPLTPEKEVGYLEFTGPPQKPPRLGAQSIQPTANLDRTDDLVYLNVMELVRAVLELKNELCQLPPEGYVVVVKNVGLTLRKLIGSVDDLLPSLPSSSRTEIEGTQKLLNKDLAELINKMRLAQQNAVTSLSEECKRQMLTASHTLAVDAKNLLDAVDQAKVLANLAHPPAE
Description: as §1, §2

NCI-H322M = assay: cells; assay type: cell-based; details: NCI-H322M (NSCLC)
HT29 = assay: cells; assay type: cell-based; details: HT29 (Colon Cancer)
SF-295 = assay: cells; assay type: cell-based; details: SF-295 (CNS Cancer)
[3] = Homo sapiens, read-out: LC50 (the source's name)

Q: Which results are given for `O=c1[nH]ccc2nc(N3CCC(O)CC3)nc(Nc3cccc(C(F)(F)F)c3)c12` [Compound 6, 2-(4-hydroxypiperidin-1-yl)-4-(3-(trifluoromethyl)phenylamino)pyrido[4,3-d]pyrimidine-5(6H)-one]?
A: TGI (HS 578T): 14.1 µM; GI50 (HS 578T; Homo sapiens): 1.95 µM; pIC50 (HS 578T; Homo sapiens): 4.36; CC50 (HS 578T; [3]): 100 µM; GI50 (MCF7; Homo sapiens): 2.82 µM; pIC50 (MCF7; Homo sapiens): 5.39; CC50 (MCF7; [3]): 100 µM; TGI (MCF7): 12.6 µM; GI50 (SK-OV-3; Homo sapiens): 0.49 µM; pIC50 (SK-OV-3; Homo sapiens): 4.70; CC50 (SK-OV-3; [3]): 100 µM; TGI (SK-OV-3): 100 µM; inhibition at 0.3 µM ([1]; Homo sapiens, IgG stimulation, At 0.3 μM, THP-1, read-out: Inhibition of TNF-α Release (percentage inhibition)): 51.9%; inhibition at 1 µM ([1]; Homo sapiens, IgG stimulation, At 1 μM, THP-1, read-out: Inhibition of TNF-α Release (percentage inhibition)): 83%; percentage inhibition of TNF-α release compared with R406 ([1]; IgG stimulated release, 0.3 μM): greater than those exhibited by R406; GI50 (UO-31; Homo sapiens): 0.776 µM; pIC50 (UO-31; Homo sapiens): 4.79; CC50 (UO-31; [3]): 100 µM; TGI (UO-31): 22.9 µM; TGI (CAKI-1): 6.31 µM; GI50 (CAKI-1; Homo sapiens): 0.282 µM; pIC50 (CAKI-1; Homo sapiens): 5.89; CC50 (CAKI-1; [3]): 100 µM; GI50 (LOX IMVI; Homo sapiens): 1.41 µM; pIC50 (LOX IMVI; Homo sapiens): 5.58; CC50 (LOX IMVI; [3]): 91.2 µM; TGI (LOX IMVI): 16.6 µM; inhibition at 0.3 µM ([2]; Homo sapiens, LPS stimulation, At 0.3 μM, THP-1, read-out: Inhibition of TNF-α Release (percentage inhibition)): 58%; inhibition at 1 µM ([2]; Homo sapiens, LPS stimulation, At 1 μM, THP-1, read-out: Inhibition of TNF-α Release (percentage inhibition)): 68.9%; percentage inhibition of TNF-α release compared with dexamethasone ([2]; LPS stimulated release): greater than or equal to those exhibited by dexamethasone; TGI (A549/ATCC): 100 µM; GI50 (A549/ATCC; Homo sapiens): 3.8 µM; pIC50 (A549/ATCC; Homo sapiens): 5.20; CC50 (A549/ATCC; [3]): 100 µM; GI50 (OVCAR-4; Homo sapiens): 1.74 µM; pIC50 (OVCAR-4; Homo sapiens): 5.04; LC50 (OVCAR-4; Homo sapiens): 100 µM; TGI (OVCAR-4): 36.3 µM; inhibition at 1 µM (SYK): 88%; inhibition at 1 µM (PYK2): 83%; GI50 (NCI-H322M; Homo sapiens): 2.29 µM; pIC50 (NCI-H322M; Homo sapiens): 4.67; CC50 (NCI-H322M; [3]): 100 µM; TGI (NCI-H322M): 28.8 µM; TGI (HT29): 95.5 µM; GI50 (HT29; Homo sapiens, HT-29): 3.89 µM; pIC50 (HT29; Homo sapiens, HT-29): 5.15; CC50 (HT29; Homo sapiens, HT-29, read-out: LC50 (the source's name)): 100 µM; GI50 (SF-295; Homo sapiens): 2.95 µM; pIC50 (SF-295; Homo sapiens): 5.17; CC50 (SF-295; [3]): 56.2 µM; TGI (SF-295): 7.76 µM
